{"source": "PubChem BioAssay (NCI)", "assay_in_all_cases": "NCI-60 cell line screen, 48 h", "key": {"[1]": {"system": "HL-60(TB) leukemia"}, "[2]": {"system": "KM12 colon"}, "[3]": {"system": "MOLT-4 leukemia"}, "[4]": {"system": "OVCAR-4 ovarian"}, "[5]": {"system": "OVCAR-5 ovarian"}, "[6]": {"system": "SR leukemia"}, "[7]": {"system": "TK-10 renal"}, "[8]": {"system": "UO-31 renal"}, "[9]": {"system": "CAKI-1 renal"}, "[10]": {"system": "PC-3 prostate"}}, "note": "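Five compound concentrations were applied to cells in 96-well plates for 48 hours; endpoints were derived by simple linear interpolation of the resulting dose-response curve. GI50 is the concentration that inhibits growth by half. TGI denotes the concentration required for complete inhibition of growth.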", "data": [{"smiles": "CC(=O)NC1C(OCc2ccccc2)OC(CO)C(O)C1OC(C)C(=O)N[C@@H](C)C(=O)N[C@H](CCC(=O)OCCNc1c2ccccc2nc2cccc([N+](=O)[O-])c12)C(N)=O", "note": "(some centres not stated)", "values": [{"measurement": "TGI", "setting": "[1]", "value": 0.0564, "unit": "µM"}, {"measurement": "TGI", "setting": "[2]", "value": 0.00538, "unit": "µM"}, {"measurement": "TGI", "setting": "[3]", "value": "> 0.1", "unit": "µM"}, {"measurement": "TGI", "setting": "[4]", "value": 0.0116, "unit": "µM"}, {"measurement": "TGI", "setting": "[5]", "value": 0.0061, "unit": "µM"}, {"measurement": "TGI", "setting": "[6]", "value": "> 0.1", "unit": "µM"}, {"measurement": "TGI", "setting": "[7]", "value": 0.0631, "unit": "µM"}, {"measurement": "TGI", "setting": "[8]", "value": 0.0107, "unit": "µM"}]}, {"smiles": "Cn1nc(-c2ccc(Cl)cc2)nc2c(=O)n(C)c(=O)nc1-2", "values": [{"measurement": "GI50", "setting": "[9]", "value": 1.87, "unit": "µM"}, {"measurement": "TGI", "setting": "[9]", "value": 6.61, "unit": "µM"}, {"measurement": "GI50", "setting": "[1]", "value": 1.11, "unit": "µM"}, {"measurement": "TGI", "setting": "[1]", "value": 3.69, "unit": "µM"}, {"measurement": "GI50", "setting": "[2]", "value": 1.35, "unit": "µM"}, {"measurement": "TGI", "setting": "[2]", "value": 5.5, "unit": "µM"}, {"measurement": "GI50", "setting": "[3]", "value": 1.13, "unit": "µM"}, {"measurement": "TGI", "setting": "[3]", "value": 3.22, "unit": "µM"}, {"measurement": "GI50", "setting": "[4]", "value": 1.2, "unit": "µM"}, {"measurement": "TGI", "setting": "[4]", "value": 3.3, "unit": "µM"}, {"measurement": "GI50", "setting": "[5]", "value": 0.949, "unit": "µM"}, {"measurement": "TGI", "setting": "[5]", "value": 1.77, "unit": "µM"}, {"measurement": "GI50", "setting": "[10]", "value": 1.19, "unit": "µM"}, {"measurement": "TGI", "setting": "[10]", "value": 7.9, "unit": "µM"}, {"measurement": "GI50", "setting": "[7]", "value": 6.09, "unit": "µM"}, {"measurement": "TGI", "setting": "[7]", "value": 24.8, "unit": "µM"}, {"measurement": "GI50", "setting": "[8]", "value": 1.53, "unit": "µM"}, {"measurement": "TGI", "setting": "[8]", "value": 6.56, "unit": "µM"}]}, {"smiles": "Cn1c(=O)c(NC(=O)C(Cl)(Cl)Cl)nc2ccccc21", "values": [{"measurement": "TGI", "setting": "[9]", "value": "> 100", "unit": "µM"}, {"measurement": "TGI", "setting": "[1]", "value": "> 100", "unit": "µM"}, {"measurement": "TGI", "setting": "[2]", "value": "> 100", "unit": "µM"}, {"measurement": "TGI", "setting": "[3]", "value": "> 100", "unit": "µM"}, {"measurement": "TGI", "setting": "[7]", "value": "> 100", "unit": "µM"}, {"measurement": "TGI", "setting": "[8]", "value": "> 100", "unit": "µM"}]}, {"smiles": "ON(Cc1ccccc1)C(=S)c1ccccc1", "values": [{"measurement": "TGI", "setting": "[1]", "value": 7.75, "unit": "µM"}, {"measurement": "TGI", "setting": "[2]", "value": "> 63.6", "unit": "µM"}, {"measurement": "TGI", "setting": "[3]", "value": "> 41", "unit": "µM"}, {"measurement": "TGI", "setting": "[4]", "value": "> 100", "unit": "µM"}, {"measurement": "TGI", "setting": "[5]", "value": "> 100", "unit": "µM"}, {"measurement": "TGI", "setting": "[10]", "value": "> 100", "unit": "µM"}, {"measurement": "TGI", "setting": "[7]", "value": "> 100", "unit": "µM"}, {"measurement": "TGI", "setting": "[8]", "value": 37.9, "unit": "µM"}]}, {"smiles": "Nc1c(O)cc(N=C2C(=O)C=CC=C2C(=O)O)c(O)c1C(=O)O", "values": [{"measurement": "TGI", "setting": "[9]", "value": "> 100", "unit": "µM"}, {"measurement": "TGI", "setting": "[1]", "value": "> 100", "unit": "µM"}, {"measurement": "TGI", "setting": "[2]", "value": "> 100", "unit": "µM"}, {"measurement": "TGI", "setting": "[3]", "value": "> 100", "unit": "µM"}, {"measurement": "TGI", "setting": "[4]", "value": "> 100", "unit": "µM"}, {"measurement": "TGI", "setting": "[5]", "value": "> 100", "unit": "µM"}, {"measurement": "TGI", "setting": "[6]", "value": "> 100", "unit": "µM"}, {"measurement": "TGI", "setting": "[7]", "value": "> 100", "unit": "µM"}, {"measurement": "TGI", "setting": "[8]", "value": "> 100", "unit": "µM"}]}, {"smiles": "CCOc1ccc2c(c1)[n+]([O-])c(-c1ccc(Br)cc1)c(N)[n+]2[O-]", "values": [{"measurement": "TGI", "setting": "[9]", "value": 64.1, "unit": "µM"}, {"measurement": "TGI", "setting": "[1]", "value": "> 100", "unit": "µM"}, {"measurement": "TGI", "setting": "[2]", "value": "> 100", "unit": "µM"}, {"measurement": "TGI", "setting": "[3]", "value": "> 100", "unit": "µM"}, {"measurement": "TGI", "setting": "[4]", "value": "> 100", "unit": "µM"}, {"measurement": "TGI", "setting": "[5]", "value": "> 100", "unit": "µM"}, {"measurement": "TGI", "setting": "[7]", "value": "> 100", "unit": "µM"}, {"measurement": "TGI", "setting": "[8]", "value": "> 100", "unit": "µM"}]}, {"smiles": "C[N+](C)(C)CC1CCC/C1=N/O", "note": "(configuration not stated)", "values": [{"measurement": "TGI", "setting": "[1]", "value": 35.3, "unit": "µM"}, {"measurement": "TGI", "setting": "[2]", "value": "> 100", "unit": "µM"}, {"measurement": "TGI", "setting": "[3]", "value": "> 100", "unit": "µM"}, {"measurement": "TGI", "setting": "[4]", "value": "> 100", "unit": "µM"}, {"measurement": "TGI", "setting": "[5]", "value": "> 100", "unit": "µM"}, {"measurement": "TGI", "setting": "[6]", "value": 54.2, "unit": "µM"}, {"measurement": "TGI", "setting": "[7]", "value": "> 100", "unit": "µM"}, {"measurement": "TGI", "setting": "[8]", "value": "> 100", "unit": "µM"}]}, {"smiles": "C#CC[N+](C)(CC#C)CC#C", "values": [{"measurement": "TGI", "setting": "[9]", "value": "> 100", "unit": "µM"}, {"measurement": "TGI", "setting": "[1]", "value": "> 100", "unit": "µM"}, {"measurement": "TGI", "setting": "[2]", "value": "> 100", "unit": "µM"}, {"measurement": "TGI", "setting": "[3]", "value": "> 100", "unit": "µM"}, {"measurement": "TGI", "setting": "[4]", "value": "> 100", "unit": "µM"}, {"measurement": "TGI", "setting": "[5]", "value": "> 100", "unit": "µM"}, {"measurement": "TGI", "setting": "[7]", "value": "> 100", "unit": "µM"}, {"measurement": "TGI", "setting": "[8]", "value": "> 100", "unit": "µM"}]}, {"smiles": "NC1=NC(c2ccc(Cl)cc2)N(c2ccc(S(N)(=O)=O)cc2)C(N)=N1", "note": "(configuration not stated)", "values": [{"measurement": "TGI", "setting": "[9]", "value": "> 100", "unit": "µM"}, {"measurement": "TGI", "setting": "[2]", "value": "> 100", "unit": "µM"}, {"measurement": "TGI", "setting": "[3]", "value": "> 100", "unit": "µM"}, {"measurement": "TGI", "setting": "[4]", "value": "> 100", "unit": "µM"}, {"measurement": "TGI", "setting": "[5]", "value": "> 100", "unit": "µM"}, {"measurement": "TGI", "setting": "[10]", "value": "> 100", "unit": "µM"}, {"measurement": "TGI", "setting": "[6]", "value": "> 100", "unit": "µM"}, {"measurement": "TGI", "setting": "[7]", "value": "> 100", "unit": "µM"}, {"measurement": "TGI", "setting": "[8]", "value": "> 100", "unit": "µM"}]}, {"smiles": "CC(=O)OC1=CC2=CC[C@H]3[C@@H]4CCC(=O)[C@@]4(C)CC(=O)[C@]3(S)[C@@]2(C)CC1", "values": [{"measurement": "TGI", "setting": "[9]", "value": "> 100", "unit": "µM"}, {"measurement": "TGI", "setting": "[2]", "value": "> 100", "unit": "µM"}, {"measurement": "TGI", "setting": "[3]", "value": 37.4, "unit": "µM"}, {"measurement": "TGI", "setting": "[4]", "value": "> 100", "unit": "µM"}, {"measurement": "TGI", "setting": "[5]", "value": "> 100", "unit": "µM"}, {"measurement": "TGI", "setting": "[10]", "value": "> 100", "unit": "µM"}, {"measurement": "TGI", "setting": "[6]", "value": 74.1, "unit": "µM"}, {"measurement": "TGI", "setting": "[7]", "value": 85.1, "unit": "µM"}, {"measurement": "TGI", "setting": "[8]", "value": "> 100", "unit": "µM"}]}, {"smiles": "COC(=O)C1=C(c2ccc(OC)c(OC)c2)OC(c2cc(OC)c(OC)c(OC)c2)C1", "note": "(configuration not stated)", "values": [{"measurement": "TGI", "setting": "[9]", "value": "> 100", "unit": "µM"}, {"measurement": "TGI", "setting": "[2]", "value": "> 100", "unit": "µM"}, {"measurement": "TGI", "setting": "[4]", "value": "> 100", "unit": "µM"}, {"measurement": "TGI", "setting": "[5]", "value": "> 100", "unit": "µM"}, {"measurement": "TGI", "setting": "[7]", "value": "> 100", "unit": "µM"}, {"measurement": "TGI", "setting": "[8]", "value": "> 100", "unit": "µM"}]}]}
